# Measured values from patent publication US5849776A, “Medicaments based on metronidazole or on a synergic mixture of metronidazole and clindamycin” (Centre International de Recherches Dermatologiques Galderma …, priority 1994, dated 1998).
# “Also recorded” adds a separate entry of the source.
# Experiments:
# [1] = system: oedema of the ear of the mouse induced by topical application of arachidonic acid; settings: conventional agents, general statement on the model; cited from earlier work
# [2] = system: oedema of the ear of the mouse induced by topical application of arachidonic acid; assay: oedema of the ear of the mouse induced by topical application of arachidonic acid (in vivo topical anti-inflammatory activity); settings: for % Inhibition of the oedema After 1 h: 1 h after arachidonic acid; for % Inhibition of the oedema After 1 h / % Inhibition of the oedema After 2 h: each active 2% in acetone solution, topical, 25 μl twice daily for 4 days plus last application 2 h before arachidonic acid, vs other ear pretreated with acetone only; for % Inhibition of the oedema After 2 h: 2 h after arachidonic acid; for anti-inflammatory activity (in words): in vivo topical application
# Source text: The test used to evaluate this activity is that of oedema of the ear of the mouse induced by topical application of arachidonic acid. According to this model, the topical application of arachidonic acid to the ear causes an inflammation which is characterized by the rapid development of an oedema, the latter becoming maximum at the end of one hour after application. The oedematous response is then quantified by measuring the thickness of the ear.
# The exact operating protocol is the following: the mice are first of all pretreated with the active product(s) to be evaluated, two topical applications per day (2×25 μl; one application in the morning and the other in the evening) being carried out on one of their ears of an acetone solution containing, at a given concentration, this or these active principle(s); this pretreatment is carried out for four consecutive days. Then, on the fifth day, the mice receive a last application (25 μl) of the solution containing the active principle(s) to be tested, which takes place two hours before the application to the ear thus pretreated of the arachidonic acid intended to produce the oedema (25 μl of a THF/methanol solution containing 4 weight % of arachidonic acid). The oedematous response is then quantified by measuring the thickness of the ear 1 hour and 2 hours after application of the arachidonic acid solution.
Structure (SMILES),inhibition in this model (in words) [1],% Inhibition of the oedema After 1 h [2],% Inhibition of the oedema After 2 h [2],anti-inflammatory activity (in words) [2]
CCCCC1C(=O)N(c2ccccc2)N(c2ccccc2)C1=O [phenylbutazone],good inhibitors in this model,–,–,–
COc1ccc2c(c1)c(CC(=O)O)c(C)n2C(=O)c1ccc(Cl)cc1 [indomethacin],good inhibitors in this model,–,–,–
COc1ccc2cc([C@H](C)C(=O)O)ccc2c1 [naproxen],good inhibitors in this model,–,–,–
CCC[C@@H]1C[C@@H](C(=O)N[C@@H]([C@H]2O[C@H](SC)[C@H](O)[C@@H](O)[C@H]2O)[C@H](C)Cl)N(C)C1 [Clindamycin],–,(ni),(ni),"does not, by itself, have any significant activity; also recorded: no, or substantially no, anti-inflammatory activity"
"Cc1ncc([N+](=O)[O-])n1CCO [Metronidazole, 2-methyl-5-nitroimidazole-1-ethanol]",–,20%,36%,good anti-inflammatory activity after in vivo topical application
